Entries after “also recorded” stand apart in the source; their conditions may differ. Where two headings read alike, the source gives them in different places. Square brackets hold non-standard residues; d marks the D form. Peptide text beside a SMILES is read from it. * marks the point of attachment. Nva = CCC[C@H](N)C(=O)O; Cbz = O=C(OCc1ccccc1)*
Assays:
[1] = tested on: proteases in rabbit reticulocyte extract; conditions: extract pre-treated with inhibitor, then R6; MALDI
Method: In this experiment, protease inhibitors were tested to inhibit the degradation of the peptide R6 (described above). In one experiment, 10 μL of rabbit reticulocyte extract was pre-treated by incubating with a specific protease inhibitor such as ebelactone or 2-LeuLeuNVa-CHO for 10-15 min. Following pretreatment, peptide R6 was added to above translation mix and incubated for 10 min at 30° C. The reaction was terminated by addition of 100 μL of 100 mM EDTA and the solution was immediately applied to the microcolumn containing 1 μL of Sigma ANTI-FLAG beads. The beads were then washed with 50 μL of 20 mM Tris-HCl, pH 7.2 and the bound peptide was eluted with approximately 4 μL of matrix solution (CHCA/acetonitrile/TFA) directly onto a MALDI plate. In the control experiment, extract pre-treated with buffer was used and processed as described above.
2 μL of the above protease inhibitor solution was added to 10 μL of the translation mixture.

[2] = tested on: proteolysis in PURE I reconstituted E. coli translation system; format: biochemical
[3] = tested on: protein synthesis; assay: Effect of protease inhibitors on protein synthesis in the translation system; format: biochemical
[4] = tested on: protease activity of E. coli translation extract; assay: Mass spectrometry assay of inhibition of R6 degradation in E. coli translation extract; conditions: extract pre-treated with inhibitor, then R6; MALDI
Method: In this experiment, protease inhibitors were tested to inhibit the degradation of the peptide R6 (described above). […] Following pretreatment, peptide R6 was added to above translation mix and incubated for 10 min at 30° C. The reaction was terminated by addition of 100 μL of 100 mM EDTA and the solution was immediately applied to the microcolumn containing 1 μL of Sigma ANTI-FLAG beads. The beads were then washed with 50 μL of 20 mM Tris-HCl, pH 7.2 and the bound peptide was eluted with approximately 4 μL of matrix solution (CHCA/acetonitrile/TFA) directly onto a MALDI plate. In the control experiment, extract pre-treated with buffer was used and processed as described above. Similar experiments were carried out using E. coli translation extract.

[5] = tested on: protein synthesis in rabbit reticulocyte lysate; format: biochemical
[6] = zonally purified E. coli ribosomes
[7] = rabbit reticulocyte lysate (RRL extract); conditions: 30° C., up to 5 min
[8] = Solution B of the PURE kit (Post-Genome Institute); conditions: 37 degrees, up to 20 minutes (or 10 minutes)
[9] = PURE I reconstituted E. coli translation system, all components except the DNA; conditions: 37° C., up to 15 min
[10] = heat denatured rabbit reticulocyte extract (by boiling at 100° C. for 5 min in presence of SDS); conditions: 30° C.
[11] = tested on: rabbit reticulocyte lysate, wheat germ extract, E. coli S30 extract; conditions: within several minutes after incubation with the translation mixtures
Method: 100 picomoles of the synthetic R6 peptide in 1 microliter of water is added to 5 ul of a test solution and incubated for 20 minutes (or 10 minutes) at 37 degrees. 50 ul of PBS is then added to the test mixture and the resulting solution is passed over a 1 microliter anti-FLAG microcolumn (which recognizes the epitope sequence at the N terminus of the R6 peptide). The column is washed with 50 ul of deionized water and the bound peptides are eluted directly onto the maldi plate using 1 microliter of CHCA matrix in 50% acetonitrile/0.2% TFA/49.8% deionized water. The intact R6 peptide and degradation products are detected by Maldi-Tof mass spectrometry in positive ion linear mode.

[12] = tested on: PURE
From the text: In this example, the protease-depleted system is used to produce the reference peptide (R6) by in vitro translation using DNA coding for the R6 peptide. Template for the reaction consists of a PCR product encoding the R6 peptide that is made by filling in overlapping oligonucleotides of the following sequence:

[13] = tested on: Amber-PURE
Method: In order to remove the protease activity from solution B, 100 ul of solution B was added to 200 ul of deionized water and spun through a YM100 Microcon filter with a 100 kDa cut-off (Millipore, Inc) at 10,000 rpm for 5 minutes in a benchtop microfuge at room temperature. […] A 10 ul aliquot contains 3 ul of diluted and filtered solution B, 7 ul of solution A and 10 picomoles of zonally purified ribosomes.
In this example, the protease-depleted system is used to produce the reference peptide (R6) by in vitro translation using DNA coding for the R6 peptide.

Which “inhibition of R6 degradation (protease activity) in rabbit reticulocyte extract” value [1] does the source give for `CCC[C@@H](C=O)NC(=O)[C@H](CC(C)C)NC(=O)[C@H](CC(C)C)NC(=O)OCc1ccccc1` [2-LeuLeuNvaCHO] (Cbz-Leu-Leu-[Nva]-aldehyde) here?
Its value is “significant reduction in protease activity”.

Which results are given for `NCCc1ccc(S(=O)(=O)F)cc1` [AEBSF]?
inhibition of R6 proteolysis in PURE I ([2]; inhibitor pre-incubated 15-30 min, R6 15 min at 37° C.): excellent inhibition; inhibition of protein synthesis ([3]; if used together with "Pefabloc protector"): could also inhibit protein synthesis

With `CC(C)C[C@H](NC(=O)[C@@H](NC(=O)N[C@@H](Cc1ccccc1)C(=O)O)[C@@H]1CCN=C(N)N1)C(=O)N[C@H](C=O)Cc1ccccc1` [Chymostatin] as the molecule, how does the “inhibition of protease activity (R6 degradation) in E. coli translation extract” value [4] read?
The value was “only weakly inhibited”.

Which “inhibition of protein synthesis” value [5] does the source give for `C[C@@H]1C[C@@H]([C@H](O)CC2CC(=O)NC(=O)C2)C(=O)[C@@H](C)C1` [cycloheximide] here?
Its value is “completely inhibited”.

With Ebelactone as the molecule, how does the “inhibition of R6 degradation (protease activity) in rabbit reticulocyte extract” value [1] read?
The value was “only weak protease inhibition”.

Which not cleaved [6] does the source give for MDYKDDDDKRRRRRRFFF here?
The not cleaved was “devoid of protease activity”.

And the cleaved bond [7]?
The cleaved bond was “Phe-Phe, minor, 1 min; also recorded: Arg-Arg, 1 min”.

And the cleaved bond [8]?
Its cleaved bond is “R-R”.

And the fragment found [9]?
The fragment found was “MDYKDDDDKRRRRR, major, 15 min”.

Which not cleaved [10] does the source give for MYTDIEMNRLGK here?
Its not cleaved is “retains complete peptide signal”.

Which “intact peptide after incubation with PURE I mixture” value ([2]; 15 min, 37° C., no inhibitor) does the source give for “R6: protease-sensitive peptide, sequence MDYKDDDDKRRRRRRFFF (SEQ ID NO:152), FLAG epitope at the N-terminus (N-terminal FLAG epitope)” here?
Its value is “disappearance of the intact R6 peptide”.

What about the “degradation of sub-nanomolar amounts of peptide” value [11] of the same molecule?
The value was “complete degradation”.

What about the “peptide products obtained by in vitro translation” value [12] of the same molecule?
The value was “correspond to degradation products”.

And the “peptide product obtained by in vitro translation” value [13]?
Its value is “intact patent peptide”.

For aprotinin, which “inhibition of protein synthesis” value [3] is on record?
The value was “inhibit protein synthesis”.

And the “inhibition of protease activity (R6 degradation) in E. coli translation extract” value [4]?
The value was “significant inhibition”.

From US7563598B2 (Ambergen, Inc., priority 2004, dated 2009)
